Like-named read-outs stand apart in the source and are kept apart here.
Columns and labels:
[1] = test system: CCRF-CEM; conditions: NCI-60 database, sulforhodamine B, read-out: Cytotoxic IC50; cited from earlier work
[2] = test system: HCT-116; conditions: HCT-116, NCI-60 database, sulforhodamine B; read-out: Cytotoxic IC50; cited from earlier work
[3] = test system: PANC-1; conditions: PANC-1, from Varbanov et al. (2017), PrestoBlue; read-out: Cytotoxic IC50; cited from earlier work
[4] = test system: MES-SA xenografts; assay: MES-SA xenograft tumors in mice; type: in vivo, NSG mice; conditions: MES-SA derived tumors; DOX 2 mg/kg iv. once per week
Description: 2×10^6 cells from each cell line in 200 μl serum-free culture media DMEM were inoculated into NOD.Cg-Prkdc^scid Il2rg^tm1Wjl/SzJ (NSG) mice subcutaneously in the left flank and treatment was initiated when tumors reached 200 mm^3. Mice were treated with saline (n=3 per each cell lines). […] The size of the tumors was measured every second day with a digital caliper.

[5] = test system: MDA-MB-435; conditions: MDA-MB-435, NCI-60 database, sulforhodamine B; read-out: Cytotoxic IC50; cited from earlier work
[6] = test system: HS 578T; conditions: NCI-60 database, sulforhodamine B, read-out: Cytotoxic IC50; cited from earlier work
[7] = test system: HT29; conditions: HT29, NCI-60 database, sulforhodamine B; read-out: Cytotoxic IC50; cited from earlier work
[8] = test system: RXF 393; conditions: RXF 393, NCI-60 database, sulforhodamine B; read-out: Cytotoxic IC50; cited from earlier work
[9] = test system: SW-620; conditions: SW-620, NCI-60 database, sulforhodamine B; read-out: Cytotoxic IC50; cited from earlier work
[10] = test system: HOP-62; assay: In vitro cytotoxicity (PrestoBlue); type: cell-based; conditions: Homo sapiens, HOP-62, 72 h; read-out: Cytotoxic IC50
Excerpt: (§1) Experiments were repeated at least 3 times.

[11] = test system: OVCAR-5; assay: In vitro cytotoxicity (PrestoBlue); type: cell-based; conditions: Homo sapiens, OVCAR-5, 72 h; read-out: Cytotoxic IC50
Excerpt: as §1

[12] = test system: OVCAR-3; assay: In vitro cytotoxicity (PrestoBlue); type: cell-based; conditions: Homo sapiens, OVCAR-3, 72 h; read-out: Cytotoxic IC50
Excerpt: as §1

[13] = test system: CAKI-1; assay: In vitro cytotoxicity (PrestoBlue); type: cell-based; conditions: Homo sapiens, CAKI-1, 72 h; read-out: Cytotoxic IC50
Excerpt: as §1

[14] = test system: NCI/ADR-RES; assay: In vitro cytotoxicity (PrestoBlue); type: cell-based; conditions: Homo sapiens, 72 h, read-out: Cytotoxic IC50
Excerpt: as §1

[15] = test system: NCI-H226; assay: In vitro cytotoxicity (PrestoBlue); type: cell-based; conditions: Homo sapiens, NCI-H226, 72 h; read-out: Cytotoxic IC50
Excerpt: as §1

[16] = test system: MDA-MB-435; assay: In vitro cytotoxicity (PrestoBlue); type: cell-based; conditions: Homo sapiens, MDA-MB-435, 72 h; read-out: Cytotoxic IC50
Excerpt: as §1

[17] = test system: NCI-H522; assay: In vitro cytotoxicity (PrestoBlue); type: cell-based; conditions: Homo sapiens, NCI-H522, 72 h; read-out: Cytotoxic IC50
Excerpt: as §1

[18] = test system: SK-MEL-28; assay: In vitro cytotoxicity (PrestoBlue); type: cell-based; conditions: Homo sapiens, SK-MEL-28, 72 h; read-out: Cytotoxic IC50
Excerpt: as §1

[19] = test system: HCC-2998; assay: In vitro cytotoxicity (PrestoBlue); type: cell-based; conditions: Homo sapiens; HCC-2998, 72 h; read-out: Cytotoxic IC50
Excerpt: as §1

[20] = test system: HL-60(TB); assay: In vitro cytotoxicity (PrestoBlue); type: cell-based; conditions: Homo sapiens, 72 h, read-out: Cytotoxic IC50
Excerpt: as §1

[21] = test system: EKVX; assay: In vitro cytotoxicity (PrestoBlue); type: cell-based; conditions: Homo sapiens, 72 h, read-out: Cytotoxic IC50
Excerpt: as §1

[22] = test system: PANC-1; assay: In vitro cytotoxicity (PrestoBlue); type: cell-based; conditions: Homo sapiens, PANC-1, 72 h; read-out: Cytotoxic IC50
Excerpt: as §1

[23] = test system: Bx-PC-3; assay: In vitro cytotoxicity (PrestoBlue); type: cell-based; conditions: Homo sapiens, BXPC-3; Bx-PC-3, 72 h; read-out: Cytotoxic IC50
Excerpt: as §1

[24] = test system: CCRF-CEM; assay: In vitro cytotoxicity (PrestoBlue); type: cell-based; conditions: Homo sapiens, 72 h, read-out: Cytotoxic IC50
Excerpt: as §1

[25] = test system: COLO 205; assay: In vitro cytotoxicity (PrestoBlue); type: cell-based; conditions: Homo sapiens, COLO 205, 72 h; read-out: Cytotoxic IC50
Excerpt: as §1

[26] = test system: RXF 393; assay: In vitro cytotoxicity (PrestoBlue); type: cell-based; conditions: Homo sapiens, RXF 393, 72 h; read-out: Cytotoxic IC50
Excerpt: as §1

[27] = test system: PC-3; assay: In vitro cytotoxicity (PrestoBlue); type: cell-based; conditions: Homo sapiens, PC-3, 72 h; read-out: Cytotoxic IC50
Excerpt: as §1

[28] = test system: SW-620; assay: In vitro cytotoxicity (PrestoBlue); type: cell-based; conditions: Homo sapiens, SW-620, 72 h; read-out: Cytotoxic IC50
Excerpt: as §1

[29] = test system: OVCAR-8; assay: In vitro cytotoxicity (PrestoBlue); type: cell-based; conditions: Homo sapiens, OVCAR-8, 72 h; read-out: Cytotoxic IC50
Excerpt: as §1

[30] = test system: A498; assay: In vitro cytotoxicity (PrestoBlue); type: cell-based; conditions: Homo sapiens, A498, 72 h; read-out: Cytotoxic IC50
Excerpt: as §1

[31] = test system: MALME-3M; assay: In vitro cytotoxicity (PrestoBlue); type: cell-based; conditions: Homo sapiens, 72 h, read-out: Cytotoxic IC50
Excerpt: as §1

For `COc1cccc2c1C(=O)c1c(O)c3c(c(O)c1C2=O)C[C@@](O)(C(=O)CO)C[C@@H]3O[C@H]1C[C@H](N)[C@H](O)[C@H](C)O1` [DOX, doxorubicin], the IC50 [1] is given as 37.2 nM, the IC50 [2] is given as 66.1 nM and the IC50 [3] is given as 460 nM. The Overall survival [4] was “increased the overall survival”, the IC50 [5] was 258 nM and the IC50 [6] was 188 nM. The IC50 [7] was 171 nM, the IC50 [8] was 160 nM and the IC50 [9] was 70.1 nM.
For `COc1cccc2c1C(=O)c1c(O)c3c(c(O)c1C2=O)C[C@@](O)(C(C)=O)C[C@@H]3O[C@H]1C[C@H]2[C@H](OC3CCCN32)[C@H](C)O1` (stereo partly shown) [PyDau, 2-deamino-2-pyrrolino-daunorubicin], the IC50 [10] was 4.16 nM, the IC50 [11] was 1.93 nM and the IC50 [12] was 1.22 nM. The IC50 [13] was 1.4 nM, the IC50 [14] was 1.38 nM and the IC50 [15] was 4.44 nM. The IC50 [16] was 1.86 nM, the IC50 [17] was 0.94 nM and the IC50 [18] was 6.87 nM. For the same compound, the IC50 [19] was 8.19 nM, the IC50 [20] was 0.9 nM and the IC50 [21] was 3.67 nM. For the same compound, the IC50 [22] was 1.77 nM, the IC50 [23] was 4.68 nM and the IC50 [24] was 0.23 nM. For the same compound, the IC50 [25] was 2.38 nM, the IC50 [26] was 4.66 nM and the IC50 [27] was 2.54 nM. It also gave an IC50 [28] of 2.78 nM, an IC50 [29] of 1.19 nM and an IC50 [30] of 13.3 nM. The IC50 [31] was 1.84 nM.
